Results published in patent US20250228239A1, “MOLECULES HAVING PESTICIDAL UTILITY, AND INTERMEDIATES, COMPOSITIONS, AND PROCESSES, RELATED THERETO” (priority 2024, published 2025).

What was measured:
[1] = test system: Cabbage Looper (Trichoplusia ni, TRIPNI); experiment: Bioassays on Cabbage Looper (CL), 128-well diet tray assay; format: in vivo; conditions: Trichoplusia ni; Cabbage Looper; rating class; read-out: CL
Outline: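 Each of eight wells receives artificial diet treated at 50 μg/cm^2 with the test molecule, then one to five second-instar larvae. Incubation runs five to seven days at 25° C with a 14:10 light-dark cycle under vented covers. Mortality is scored per well as a percentage and averaged.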

[2] = test system: Beet Armyworm (Spodoptera exigua, LAPHEG); experiment: Bioassays on Beet Armyworm (BAW), 128-well diet tray assay; format: in vivo; conditions: Spodoptera exigua; Beet Armyworm; rating class; read-out: BAW
Outline: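 Mortality of second-instar larvae (1–5/well) on artificial diet treated with 50 μg/cm^2 compound, read after 5–7 days at 25° C.; values are means of eight wells.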

Compound | pest or weed control at 50 µg/cm2 [1] [%] | pest or weed control at 50 µg/cm2 [2] [%]
O=C(Nc1c(F)ccc(NC(=O)c2cc(NC(=O)[C@H]3[C@H](c4cc(Cl)c(Cl)c(Cl)c4)C3(Cl)Cl)ccc2Cl)c1F)c1ccco1 [F1648, N-(3-(2-Chloro-5-((1R,3R)-2,2-dichloro-3-(3,4,5-trichlorophenyl)cyclopropane-1-carboxamido)benzamido)-2,6-difluorophenyl)furan-2-carboxamide] | 50 to 100 | 50 to 100
O=C1CC(C(=O)Nc2c(F)ccc(NC(=O)c3cc(NC(=O)[C@H]4[C@H](c5cc(Cl)c(Cl)c(Cl)c5)C4(Cl)Cl)ccc3Cl)c2F)C1 [F1649, 2-Chloro-5-((1R,3R)-2,2-dichloro-3-(3,4,5-trichlorophenyl)cyclopropane-1-carboxamido)-N-(2,4-difluoro-3-(3-oxocyclobutane-1-carboxamido)phenyl)benzamide] | 50 to 100 | 50 to 100
N#CCC(=O)Nc1c(F)ccc(NC(=O)c2cc(NC(=O)[C@H]3[C@H](c4cc(Cl)c(Cl)c(Cl)c4)C3(Cl)Cl)ccc2Cl)c1F [F1650, 2-Chloro-N-(3-(2-cyanoacetamido)-2,4-difluorophenyl)-5-((1R,3R)-2,2-dichloro-3-(3,4,5-trichlorophenyl)cyclopropane-1-carboxamido)benzamide] | 50 to 100 | 50 to 100
O=C(Nc1ccc(F)c(NC(=O)C(F)(F)C(F)(F)C(F)(F)F)c1F)c1cc(NC(=O)[C@H]2[C@H](c3cc(Cl)c(Cl)c(Cl)c3)C2(Cl)Cl)ccc1Cl [F1652, 2-Chloro-5-((1R,3R)-2,2-dichloro-3-(3,4,5-trichlorophenyl)cyclopropane-1-carboxamido)-N-(2,4-difluoro-3-(2,2,3,3,4,4,4-heptafluorobutanamido)phenyl)benzamide] | 50 to 100 | 50 to 100
CCCC(=O)Nc1c(F)ccc(NC(=O)c2cc(NC(=O)[C@H]3[C@H](c4ccc(Cl)c(C(F)(F)F)c4)C3(Cl)Cl)ccc2Cl)c1F [F1659, N-(3-Butyramido-2,4-difluorophenyl)-2-chloro-5-((1R,3R)-2,2-dichloro-3-(4-chloro-3-(trifluoromethyl)phenyl)cyclopropane-1-carboxamido)benzamide] | 50 to 100 | 50 to 100
O=C(Nc1ccc(F)c(NC(=O)C2(C(F)(F)F)CC2)c1F)c1cc(NC(=O)[C@H]2[C@H](c3ccc(Cl)c(Cl)c3)C2(Cl)Cl)ccc1Cl [F1662, 2-Chloro-5-((1R,3R)-2,2-dichloro-3-(3,4-dichlorophenyl)cyclopropane-1-carboxamido)-N-(2,4-difluoro-3-(1-(trifluoromethyl)cyclopropane-1-carboxamido)phenyl)benzamide] | 50 to 100 | 50 to 100
O=C(Nc1ccc(F)c(NC(=O)[C@H]2CCCN2)c1F)c1cc(NC(=O)[C@H]2[C@H](c3ccc(Cl)c(Cl)c3)C2(Cl)Cl)ccc1Cl [F1663, (R)—N-(3-(2-Chloro-5-((1R,3R)-2,2-dichloro-3-(3,4-dichlorophenyl)cyclopropane-1-carboxamido)benzamido)-2,6-difluorophenyl)pyrrolidine-2-carboxamide] | 50 to 100 | 50 to 100
O=C(Nc1ccc(F)c(NC(=O)[C@@H]2CCCN2)c1F)c1cc(NC(=O)[C@H]2[C@H](c3ccc(Cl)c(Cl)c3)C2(Cl)Cl)ccc1Cl [F1664, (S)—N-(3-(2-chloro-5-((1R,3R)-2,2-dichloro-3-(3,4-dichlorophenyl)cyclopropane-1-carboxamido)benzamido)-2,6-difluorophenyl)pyrrolidine-2-carboxamide] | 50 to 100 | 50 to 100
CC(C)(C)OC(=O)N(C(=O)OC(C)(C)C)c1c(F)ccc(NC(=O)c2cc(NC(=O)[C@H]3[C@H](c4cccc(C(F)(F)F)c4)C3(Cl)Cl)ccc2Cl)c1F [F1665, tert-Butyl N-tert-butoxycarbonyl-N-[3-[[2-chloro-5-[[(1R,3R)-2,2-dichloro-3-[3-(trifluoromethyl)phenyl]cyclopropanecarbonyl]amino]benzoyl]amino]-2,6-difluoro-phenyl]carbamate] | 50 to 100 | 50 to 100
O=C(Nc1c(F)ccc(NC(=O)c2cc(NC(=O)[C@H]3[C@H](c4ccc(Cl)c(Cl)c4)C3(Cl)Cl)ccc2Cl)c1F)c1ccns1 [F1672] | 50 to 100 | 50 to 100
Cc1c(F)c(N)cc(NC(=O)c2cc(NC(=O)[C@H]3[C@H](c4ccc(F)c(C(F)(F)F)c4)C3(Cl)Cl)ccc2Cl)c1F [F1674, N-(5-Amino-2,4-difluoro-3-methylphenyl)-2-chloro-5-((1R,3R)-2,2-dichloro-3-(4-fluoro-3-(trifluoromethyl)phenyl)cyclopropane-1-carboxamido)benzamide] | 50 to 100 | 50 to 100
O=C(Nc1ccc(F)c(NC(=O)C2CCCO2)c1F)c1cc(NC(=O)[C@H]2[C@H](c3cccc(C(F)(F)F)c3)C2(Cl)Cl)ccc1Cl (stereo partly drawn) [F1676, N-(3-(2-Chloro-5-((1R,3R)-2,2-dichloro-3-(3-(trifluoromethyl)phenyl)cyclopropane-1-carboxamido)benzamido)-2,6-difluorophenyl)tetrahydrofuran-2-carboxamide] | 50 to 100 | 50 to 100
O=C(Nc1ccc(F)c(NC(=O)C(F)(F)C(F)F)c1F)c1cc(NC(=O)[C@H]2[C@H](c3cccc(C(F)(F)F)c3)C2(Cl)Cl)ccc1Cl [F1677, 2-Chloro-5-((1R,3R)-2,2-dichloro-3-(3-(trifluoromethyl)phenyl)cyclopropane-1-carboxamido)-N-(2,4-difluoro-3-(2,2,3,3-tetrafluoropropanamido)phenyl)benzamide] | 50 to 100 | 50 to 100
CC(C)(C)OC(=O)N(C(=O)OC(C)(C)C)c1c(F)ccc(NC(=O)c2cc(NC(=O)[C@H]3[C@H](c4cc(F)cc(C(F)(F)F)c4)C3(Cl)Cl)ccc2Cl)c1F [F1681, tert-Butyl N-tert-butoxycarbonyl-N-[3-[[2-chloro-5-[[(1R,3R)-2,2-dichloro-3-[3-fluoro-5-(trifluoromethyl)phenyl]cyclopropanecarbonyl]amino]benzoyl]amino]-2,6-difluoro-phenyl]carbamate] | 50 to 100 | 50 to 100
O=C(CC(F)(F)F)Nc1c(F)ccc(NC(=O)c2cc(NC(=O)[C@H]3[C@H](c4ccc(F)c(C(F)(F)F)c4)C3(Cl)Cl)ccc2Cl)c1F [F1683, 2-Chloro-5-((1R,3R)-2,2-dichloro-3-(4-fluoro-3-(trifluoromethyl)phenyl)cyclopropane-1-carboxamido)-N-(2,4-difluoro-3-(3,3,3-trifluoropropanamido)phenyl)benzamide] | 50 to 100 | 50 to 100
O=C(Nc1ccc(F)cc1F)c1cc(NC(=O)[C@H]2[C@H](c3cc(F)c(F)c(F)c3)C2(Cl)Cl)ccc1Cl [F1693, 2-Chloro-5-((1R,3R)-2,2-dichloro-3-(3,4,5-trifluorophenyl)cyclopropane-1-carboxamido)-N-(2,4-difluorophenyl)benzamide] | 50 to 100 | 50 to 100
Nc1c(F)ccc(NC(=O)c2cc(NC(=O)[C@H]3[C@H](c4ccc(F)c(Br)c4)C3(Cl)Cl)ccc2Cl)c1F [F1713, N-(3-Amino-2,4-difluorophenyl)-5-((1R,3R)-3-(3-bromo-4-fluorophenyl)-2,2-dichlorocyclopropane-1-carboxamido)-2-chlorobenzamide] | 50 to 100 | 50 to 100
O=C(Nc1ccc(F)c(NC(=O)C2CCCO2)c1F)c1cc(NC(=O)[C@H]2[C@H](c3ccc(F)c(Br)c3)C2(Cl)Cl)ccc1Cl (stereo partly drawn) [F1714, N-(3-(5-((1R,3R)-3-(3-Bromo-4-fluorophenyl)-2,2-dichlorocyclopropane-1-carboxamido)-2-chlorobenzamido)-2,6-difluorophenyl)tetrahydrofuran-2-carboxamide] | 50 to 100 | 50 to 100
O=C(Nc1ccc(F)c(NC(=O)C(F)(F)C(F)F)c1F)c1cc(NC(=O)[C@H]2[C@H](c3ccc(F)c(Br)c3)C2(Cl)Cl)ccc1Cl [F1715, 5-((1R,3R)-3-(3-Bromo-4-fluorophenyl)-2,2-dichlorocyclopropane-1-carboxamido)-2-chloro-N-(2,4-difluoro-3-(2,2,3,3-tetrafluoropropanamido)phenyl)benzamide] | 50 to 100 | 50 to 100
CC(=O)Nc1c(F)ccc(NC(=O)c2cc(NC(=O)[C@H]3[C@H](c4ccc(F)c(Br)c4)C3(Cl)Cl)ccc2Cl)c1F [F1716, N-(3-Acetamido-2,4-difluorophenyl)-5-((1R,3R)-3-(3-bromo-4-fluorophenyl)-2,2-dichlorocyclopropane-1-carboxamido)-2-chlorobenzamide] | 50 to 100 | 50 to 100
CCC(=O)Nc1c(F)ccc(NC(=O)c2cc(NC(=O)[C@H]3[C@H](c4ccc(F)c(Br)c4)C3(Cl)Cl)ccc2Cl)c1F [F1717, 5-((1R,3R)-3-(3-Bromo-4-fluorophenyl)-2,2-dichlorocyclopropane-1-carboxamido)-2-chloro-N-(2,4-difluoro-3-propionamidophenyl)benzamide] | 50 to 100 | 50 to 100
O=C(CC(F)(F)F)Nc1c(F)ccc(NC(=O)c2cc(NC(=O)[C@H]3[C@H](c4ccc(F)c(Br)c4)C3(Cl)Cl)ccc2Cl)c1F [F1718, 5-((1R,3R)-3-(3-Bromo-4-fluorophenyl)-2,2-dichlorocyclopropane-1-carboxamido)-2-chloro-N-(2,4-difluoro-3-(3,3,3-trifluoropropanamido)phenyl)benzamide] | 50 to 100 | 50 to 100
